Series [1] is described as follows: In vivo metabolic stability (serum and urine, radio-HPLC). Also on record: species or system mouse. Conditions: female C57BL/6 normal mice, 5.55 MBq i.v. From the text: μg/day on days 0, 3, and 6).
distribution of the radiotracer in the main organs. Mice were euthanized at 0.5, 1, and
and measured using a γ counter (Packard, Meriden, CT). The results are presented as
In vivo metabolic stability studies
grazytracer or 68Ga-NOTA-GZP.
and analyzed using radio-HPLC.

The next series concerns 4T1 tumor–bearing mice. Conditions: mouse, in vivo.
For series [2], the system named is MC38 tumor–bearing mice. Conditions: mouse, in vivo.
Method: (§1) Small-animal PET scanning and image analysis were performed using a Super Nova PET/CT scanner ([sequence]). […] At the indicated times (0.5, 1, and 2 hours) after injection, 10-minute static PET scans were acquired. PET images were analyzed, and the region of interest–derived (ROI-derived) %ID/g values were calculated as described previously ([52]).
MC38 tumor-bearing C57BL/6 mice were pretreated with anti-PD-1 antibody
For the small-animal PET imaging studies, ten MC38 tumor-bearing C57BL/6 mice
CTLA-4 (clone 9D9; BioXcell) antibodies on days 0, 3, and 6 after the tumor size
grazytracer. Mice were anesthetized with 2% inhaled isoflurane, and 10-min static PET
scans were acquired at 0.5, 1, and 2 h postinjection using a small-animal Super Nova
PET/CT scanner ([sequence], Shanghai, China). The tumor %ID/g values and tumor-
to-muscle ratios of 68Ga-NOTA-GZP and 68Ga-grazytracer were calculated for
In series [3] the test system is MC38 tumor–bearing mice. Nature of the series: FTY720 treatment of MC38 tumor–bearing mice under anti–PD-1 plus anti–CTLA-4. The series is classed as in vivo, mouse. From the text:
MC38 or B16-OVA tumor–bearing C57BL/6 mice were euthanized, and tumor tissues were harvested and digested with 10 U/mL collagenase I, 400 U/mL collagenase IV, and 30 U/mL DNase (Yuanye Bio-Technology) to generate single-cell suspensions. The following fluorescently labeled antibodies were then used for staining of different markers: anti-CD45 (clone 30-F11, BioLegend), anti-CD4 (clone RM4-5, eBioscience), anti-CD8 (clone 53-6.7, BioLegend), anti-NK1.1 (clone PK136, BioLegend), anti–granzyme B (clone QA16A02, BioLegend), and anti–IFN-γ (clone XMG1.2, BioLegend). For granzyme B and IFN-γ staining, cells were incubated in culture medium containing a cell activation cocktail (catalog 423303, BioLegend) at 37°C for 5 hours and then washed with permeabilization wash buffer (catalog 421002, BioLegend) before being stained with fluorescently labeled antibodies. Data collection and analysis were performed on a flow cytometer (Becton Dickinson).
The tumor sections were fixed with ice-cold acetone for 10 minutes and washed with PBS. Next, the slices were blocked with 1% BSA for 1 hour and incubated with rabbit anti–mouse granzyme B antibody (catalog 17215S, Cell Signaling Technology) or rabbit anti–mouse NK1.1 antibody (clone EPR22990-31, Abcam) overnight at 4°C. The slices were then visualized by incubation with FITC-conjugated secondary antibody (catalog E031220-01, Earthox) and DAPI (Biotium) under a confocal microscope (Leica).

Where a SMILES comes first, the peptide text is derived from it. The star is where a group is joined. X1 = O=C(O)CN1CCN(CC(=O)O)CC(Cc2ccc(NC(=S)*)cc2)N(CC(=O)O)CC1

Method for 4T1 tumor–bearing mice: as §1

Turning to `CC[C@H](C)[C@H](NC(=O)CNC(=O)CNC(=O)CNC(=S)Nc1ccc(CC2CN(CC(=O)O)CCN(CC(=O)O)CCN2CC(=O)O)cc1)C(=O)N[C@@H](CCC(=O)O)C(=O)N[C@@H](Cc1ccccc1)C(=O)N[C@H](C=O)CC(=O)O` (some centres unmarked) [^68Ga-NOTA-GZP, ^68Ga-1,4,7–triazacyclononane-1,4,7-triacetic acid–GZP, metal not drawn] (X1-GGGIEFD-aldehyde), in series [1] (serum at 0.5 hours after injection), the “in vivo metabolic stability in blood” value is recorded as “favorable stability in the blood”. Further, the “in vivo metabolic stability in urine” value in series [1] (urine at 0.5 hours after injection) was “some decomposition in urine”.

Consider `OC[C@H]1OC(O)[C@H](F)[C@@H](O)[C@@H]1O` (some centres unmarked) [^18F-FDG, ^18F-fluorodeoxyglucose], for which, in the series on 4T1 tumor–bearing mice, the “change of tumor uptake from days 0 to 6, true-progression 4T1 model” value is listed as “significantly increased”. The “change of tumor uptake from days 0 to 6, pseudoprogression MC38 model” value with MC38 tumor–bearing mice [2] was “significantly increased”.

Regarding `CCCCCCCCc1ccc(CCC(N)(CO)CO)cc1` [FTY720], in the series with MC38 tumor–bearing mice [3] (25 μg i.p. on day –1, 10 μg daily day 0 to 12, n = 6–9), the “effect on the antitumor effect of anti–PD-1 plus anti–CTLA-4” value was “partially reversed the antitumor effect”. Moreover, in the series on MC38 tumor–bearing mice [3] (MC38 mice, n = 6–9), the body weight entry was “without influencing body weight”. Also, in the series with MC38 tumor–bearing mice [3] (MC38 tumors on day 6), the “granzyme B secretion in tumors (immunofluorescence)” value is “reduced granzyme B secretion in tumors”. Besides, in the series with MC38 tumor–bearing mice [3] (flow cytometry, day 6, n = 5/group), the “levels of NK, CD4+ T and CD8+ T cells in tumor versus group without FTY720” value is listed as “significantly lower”.

The values above are taken from paper PMC9374377, “Noninvasive interrogation of CD8^+ T cell effector function for monitoring early tumor responses to immunotherapy” (The Journal of Clinical Investigation, 2022).
